Tests used:
C-Raf kinase = biological target: T1, C-Raf kinase (Homo sapiens, UniProt P04049, Y340D/Y341D); test: Biochemical assay for C-Raf.1 (coupled pyruvate kinase/lactate dehydrogenase); conditions: read-out: CRAF.1 IC50
T1 construct: Y340D,; GST (N); purchased Sigma
How it was run: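 C-Raf (0.43 nM) with MEK 30.1 nM and 1 mM ATP in Tris pH 7.5/MgCl2 buffer, activity coupled via PK/LDH to NADH oxidation (A340), 6 h at 30° C. Rates from 4–5 h window converted to % inhibition versus controls; IC50 by four-parameter fit, 1% DMSO.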

A375 cells = test: A375 cell proliferation assay (1), resazurin, 96-well; format: cell-based; conditions: Homo sapiens, A-375, inhibition of cell proliferation
How it was run: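 Viability was read by resazurin fluorescence at 540 nm excitation and 600 nm emission, using a 440 μM solution added for 5–6 h at the end of culture. IC50 came from the curve fit.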

H2405 cells = test: H2405 cell proliferation assay (1), resazurin, 96-well; format: cell-based; conditions: Homo sapiens, NCI-H2405, inhibition of cell proliferation
How it was run: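 This is a resazurin viability readout (excitation 540 nm, emission 600 nm) taken 5-6 h after adding 440 μM resazurin solution, giving IC50 values.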

WM3928 cells = test: WM3928 cell proliferation assay (1), resazurin, 96-well; format: cell-based; conditions: inhibition of cell proliferation
Description: WM3928 Cell Proliferation Assay (1)
WM3928 cells (#WM3928-01-0001) are obtained from Rockland Immunochemicals Inc (Gilbertsville, PA). Briefly, cells were grown in MCDB 153 medium (Sigma, #M7403, St. Louis, MO) supplemented with 20% Leibovitz's L-15 (ThermoFisher #11415-064, Waltham, MA), 2% heat inactivated fetal bovine serum (ThermoFisher, #A3840001, Waltham, MA), 5 μg/mL Insulin (Bovine Pancreas) (Sigma, #I0516, St. Louis, MO), 1.68 mM Calcium Chloride (Sigma, #C-34006, St. Louis, MO) and 1% Penicillin/Streptomycin/L-Glutamine (ThermoFisher #10378016, Waltham, MA) at 37° C., 5% CO2, and 95% humidity. Cells are expanded until reaching 70-95% confluency at which point they are subcultured or harvested for assay use. A serial dilution of test compound is dispensed into a 96-well black clear bottom plate in triplicate. Three thousand cells are added per well in 200 μL complete growth medium in the 96-well plate. Plates are incubated for 67-72 hours at 37° C., 5% CO2, and 95% humidity. At the end of the incubation, 40 μL of a 440 μM solution of resazurin (Sigma, #199303, St. Louis, MO) in PBS is added to each well of the plate and plates are incubated for an additional 6-7 hours at 37° C., 5% CO2, and 95% humidity. Plates are read on a Synergy2 or equivalent reader (Biotek, Winooski VT) using an excitation of 540 nm and an emission of 600 nm. Data is analyzed using Prism software (GraphPad, San Diego, CA) to calculate IC50 values.

T1 sequence (P04049 307-648 Y340D/Y341D): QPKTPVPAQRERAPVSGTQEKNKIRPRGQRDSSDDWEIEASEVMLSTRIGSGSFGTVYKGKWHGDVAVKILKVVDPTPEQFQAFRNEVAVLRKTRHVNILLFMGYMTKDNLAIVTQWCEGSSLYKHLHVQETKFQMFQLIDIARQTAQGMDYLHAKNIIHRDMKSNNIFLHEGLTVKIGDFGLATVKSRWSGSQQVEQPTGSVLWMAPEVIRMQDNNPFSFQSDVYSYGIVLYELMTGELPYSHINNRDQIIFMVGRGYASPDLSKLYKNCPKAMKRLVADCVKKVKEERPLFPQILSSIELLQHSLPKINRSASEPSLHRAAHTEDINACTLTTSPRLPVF

Compound | IC50 (C-Raf kinase) | IC50 (A375 cells) | IC50 (H2405 cells) | IC50 (WM3928 cells)
CC(=O)Nc1cc(-c2cc(-c3cc(NC(=O)NCCC4(C)CC4)c(F)cc3C)cc(OCCO)n2)ccn1 [Example 33] | ≤ 0.1 µM | ≤ 0.1 µM | ≤ 0.1 µM | ≤ 0.1 µM
Cc1cc(F)c(NC(=O)NCCC2(C)CC2)cc1-c1cc(OCC(C)(C)O)nc(-c2ccncc2)c1 [Example 34] | ≤ 0.1 µM | 1 to 10 µM | 0.1 to 0.5 µM | 0.1 to 0.5 µM
Cc1cc(F)c(NC(=O)NCCC(C)(C)C#N)cc1-c1cccc(-c2ccnc(NC(=O)C3CC3)c2)c1 [Example 66] | ≤ 0.1 µM | 1 to 10 µM | 1 to 10 µM | 0.1 to 0.5 µM
Cc1cc(F)c(NC(=O)NCCC(C)(C)C#N)cc1-c1cccc(-c2cc(NC(=O)C3CC3)ncn2)c1 [Example 67] | ≤ 0.1 µM | 1 to 10 µM | 0.1 to 0.5 µM | 1 to 10 µM
Cc1ccc(NC(=O)N2CCC(C(F)(F)F)C2)cc1-c1cccc(-c2cc(NC(=O)C3CC3)ncn2)c1 (centres unmarked) [Example 73] | ≤ 0.1 µM | 0.1 to 0.5 µM | 0.1 to 0.5 µM | ≤ 0.1 µM
Cc1ncc(NC(=O)NCCC(C)(C)F)cc1-c1ccnc(-c2ccnc(NC(=O)C3CC3)c2)c1 [Example 75] | ≤ 0.1 µM | 1 to 10 µM | 1 to 10 µM | 0.5 to 1 µM
Cc1cc(F)c(NC(=O)NCCC2(C)CC2)cc1-c1cc(OCCO)nc(-c2ccnc(NC(=O)C3CC3)c2)c1 [Example 76] | ≤ 0.1 µM | ≤ 0.1 µM | ≤ 0.1 µM | ≤ 0.1 µM
COC(=O)Nc1cc(-c2cc(-c3cc(NC(=O)NCCC4(C)CC4)c(F)cc3C)cc(OCCO)n2)ccn1 [Example 77] | ≤ 0.1 µM | ≤ 0.1 µM | 0.1 to 0.5 µM | ≤ 0.1 µM
Cc1cc(F)c(NC(=O)NCCC2(C)CC2)cc1-c1ccnc(-c2ccnc3c2CC(=O)N3)c1 [Example 79] | ≤ 0.1 µM | 1 to 10 µM | 0.5 to 1 µM | 0.1 to 0.5 µM
Cc1cc(F)c(NC(=O)NC2CC(C)(C)C2)cc1-c1cc(OCCO)nc(-c2ccnc(NC(=O)C3CC3)c2)c1 [Example 80] | ≤ 0.1 µM | ≤ 0.1 µM | ≤ 0.1 µM | ≤ 0.1 µM
Cc1ncc(NC(=O)NCCC2(C)CC2)cc1-c1nccc(-c2ccnc(NC(=O)C3CC3)c2)n1 [Example 81] | ≤ 0.1 µM | 1 to 10 µM | 0.1 to 0.5 µM | 0.5 to 1 µM
COC(C)(C)CCNC(=O)Nc1cnc(C)c(-c2nccc(-c3ccnc(NC(=O)C4CC4)c3)n2)c1 [Example 82] | ≤ 0.1 µM | 1 to 10 µM | 1 to 10 µM | 1 to 10 µM
COC(C)(C)CCNC(=O)Nc1cc(-c2nccc(-c3ccnc(NC(=O)C4CC4)c3)n2)c(C)cc1F [Example 83] | ≤ 0.1 µM | 1 to 10 µM | 0.1 to 0.5 µM | 0.1 to 0.5 µM
COC1(CCNC(=O)Nc2cnc(C)c(-c3cccc(-c4cc(NC(=O)C5CC5)ncn4)c3)c2)CC1 [Example 84] | ≤ 0.1 µM | 1 to 10 µM | 1 to 10 µM | 0.5 to 1 µM
COC(=O)Nc1cc(-c2cnnc(-c3cc(NC(=O)N4CCC(CC(F)(F)F)C4)ccc3C)c2)ccn1 (centres unmarked) [Example 186] | ≤ 0.1 µM | 1 to 10 µM | 0.1 to 0.5 µM | 0.5 to 1 µM
Cc1ccc(NC(=O)N2CCC(CC(F)(F)F)C2)cc1-c1cncc(-c2cc(NC(=O)C3CC3)ncn2)c1 (centres unmarked) [Example 194] | ≤ 0.1 µM | ≤ 0.1 µM | 0.1 to 0.5 µM | ≤ 0.1 µM
Cc1ccc(NC(=O)N2CC[C@H](C(F)(F)F)C2)cc1-c1cncc(-c2cc(NC(=O)C3CC3)ncn2)c1 [Example 195] | ≤ 0.1 µM | 0.1 to 0.5 µM | 0.1 to 0.5 µM | ≤ 0.1 µM
Cc1ccc(NC(=O)N2CC[C@@H](C(F)(F)F)C2)cc1-c1cncc(-c2ccnc(NC(=O)C3CC3)c2)c1 [Example 196] | ≤ 0.1 µM | 1 to 10 µM | 0.5 to 1 µM | 0.5 to 1 µM

Compound | IC50 (C-Raf kinase) | IC50 (A375 cells) | IC50 (H2405 cells) | IC50 (WM3928 cells)
Cc1ccc(NC(=O)N2CC[C@H](C(F)(F)F)C2)cc1-c1cncc(-c2ccnc(NC(=O)C3CC3)c2)c1 [Example 197] | ≤ 0.1 µM | 0.1 to 0.5 µM | 0.1 to 0.5 µM | 0.1 to 0.5 µM
Cc1ccc(NC(=O)N2CC[C@H](C(F)(F)F)C2)cc1-c1cccc(-c2cc(NC(=O)C3CC3)ncn2)c1 [Example 200] | ≤ 0.1 µM | 0.1 to 0.5 µM | 0.1 to 0.5 µM | ≤ 0.1 µM
Cc1ccc(NC(=O)N2CC[C@@H](C(F)(F)F)C2)cc1-c1cccc(-c2cc(NC(=O)C3CC3)ncn2)c1 [Example 201] | ≤ 0.1 µM | 0.5 to 1 µM | 0.1 to 0.5 µM | 0.1 to 0.5 µM
COC(=O)Nc1cc(-c2cncc(-c3cc(NC(=O)N4CCCCCC4)ccc3C)c2)ccn1 [Example 202] | 0.1 to 0.5 µM | 1 to 10 µM | 1 to 10 µM | 1 to 10 µM
COC(=O)Nc1cc(-c2cncc(-c3cc(NC(=O)N4CCCCC4)ccc3C)c2)ccn1 [Example 208] | 0.1 to 0.5 µM | 0.5 to 1 µM | 0.5 to 1 µM | 0.5 to 1 µM
Cc1ccc(NC(=O)N2CCC(F)(F)C2)cc1-c1cncc(-c2cc(NC(=O)C3CC3)ncn2)c1 [Example 209] | ≤ 0.1 µM | 1 to 10 µM | 1 to 10 µM | 1 to 10 µM
Cc1ccc(NC(=O)N2CC[C@@H](C(F)(F)F)C2)cc1-c1cncc(-c2cc(NC(=O)C3CC3)ncn2)c1 [Example 210] | ≤ 0.1 µM | 0.1 to 0.5 µM | 0.1 to 0.5 µM | 0.1 to 0.5 µM
COC(=O)Nc1cc(-c2cncc(-c3cc(NC(=O)N4CC[C@H](C(F)(F)F)C4)ccc3C)c2)ccn1 [Example 211] | ≤ 0.1 µM | 0.5 to 1 µM | 0.1 to 0.5 µM | 0.1 to 0.5 µM
COC(=O)Nc1cc(-c2cncc(-c3cc(NC(=O)N4CCCC4)ccc3C)c2)ccn1 [Example 213] | 0.5 to 1 µM | 1 to 10 µM | 1 to 10 µM | 1 to 10 µM
CNC(=O)c1cc(-c2cncc(-c3cc(NC(=O)N4CC[C@H](C(F)(F)F)C4)c(F)cc3C)c2)ccn1 [Example 214] | 0.1 to 0.5 µM | 1 to 10 µM | 0.1 to 0.5 µM | 1 to 10 µM
Cc1cc(F)c(NC(=O)N2CC[C@H](C(F)(F)F)C2)cc1-c1cncc(-c2cc(NC(=O)C3CC3)ncn2)c1 [Example 216] | ≤ 0.1 µM | 0.1 to 0.5 µM | 0.1 to 0.5 µM | ≤ 0.1 µM
Cc1ccc(NC(=O)N2CC[C@@H](C(C)C)C2)cc1-c1cncc(-c2cc(NC(=O)C3CC3)ncn2)c1 [Example 217] | ≤ 0.1 µM | ≤ 0.1 µM | 0.1 to 0.5 µM | ≤ 0.1 µM
Cc1ccc(NC(=O)N2CCC3(CC3)C2)cc1-c1cncc(-c2cc(NC(=O)C3CC3)ncn2)c1 [Example 218] | ≤ 0.1 µM | 0.1 to 0.5 µM | 0.1 to 0.5 µM | 0.1 to 0.5 µM
Cc1ccc(NC(=O)N2CC[C@@H](C)C2)cc1-c1cncc(-c2cc(NC(=O)C3CC3)ncn2)c1 [Example 219] | ≤ 0.1 µM | 0.5 to 1 µM | 0.1 to 0.5 µM | 0.5 to 1 µM
Cc1ccc(NC(=O)N2CC[C@H](C(C)C)C2)cc1-c1cncc(-c2cc(NC(=O)C3CC3)ncn2)c1 [Example 221] | ≤ 0.1 µM | ≤ 0.1 µM | ≤ 0.1 µM | ≤ 0.1 µM
COC(=O)Nc1cc(-c2cc(-c3cc(NC(=O)N4CCC(C(F)(F)F)C4)ccc3C)cc(OCCO)n2)ccn1 (centres unmarked) [Example 222] | ≤ 0.1 µM | 0.1 to 0.5 µM | 0.1 to 0.5 µM | ≤ 0.1 µM
COC(=O)Nc1cc(-c2cc(-c3cc(NC(=O)N4CC[C@H](C(F)(F)F)C4)ccc3C)nc(C)n2)ccn1 [Example 223] | 0.1 to 0.5 µM | 1 to 10 µM | 1 to 10 µM | 1 to 10 µM
